Like-named read-outs stand apart in the source and are kept apart here.
Key:
Set-up in all cases: expressed in transfected cells; host or cells: HEK293T, transient
5-HT2A [1] = target: T1, 5-HT2A (Homo sapiens, UniProt P28223); test: cell-based; settings: for Emax: read-out: 5-HT2A β-arrestin Emax (% 5-HT), BRET, mean ± SEM
Experimental: (§1) After at least 18-24 hours, transfected cells were plated in poly-lysine coated 96-well white clear bottom cell culture plates in DMEM containing 1% dialyzed FBS at a density of 25-40,000 cells in 200 μL per well and incubated overnight. After approximately 20-24 hours, media was decanted and cells were washed with 60 μL of drug buffer (1×HBSS, 20 mM HEPES, pH 7.4), followed by 60 μL of drug buffer and pre-incubated in a humidified atmosphere at 37° C. before receiving drug stimulation. Drug stimulation was induced by adding 30 μL of a solution of drug (3X) diluted in McCorvy buffer (1×HBSS, 20 mM HEPES, pH 7.4, supplemented with 0.3% BSA fatty acid free, 0.03% ascorbic acid) and plates were incubated at the indicated time and temperature. Fifteen minutes before reading, 10 μL of the RLuc substrate, either coelenterazine h for β-Arrestin recruitment BRET^1 or coelenterazine 400a for Gq dissociation BRET^2 (Prolume/Nanolight, 5 μM final concentration) was addedper well. […] The BRET ratios of fluorescence/luminescence were calculated per well and were plotted as a function of drug concentration using Graphpad Prism 8 (Graphpad Software Inc., San Diego, CA).

5-HT2C = target: T2, 5-HT2C (Homo sapiens, UniProt P28335); test: BRET Gq dissociation, 5-HT2C; type: cell-based; settings: for Emax: read-out: 5-HT2C Gq Dissociation (BRET) EMAX ± SEM (%5-HT)
T2 sequence (P28335 33-458): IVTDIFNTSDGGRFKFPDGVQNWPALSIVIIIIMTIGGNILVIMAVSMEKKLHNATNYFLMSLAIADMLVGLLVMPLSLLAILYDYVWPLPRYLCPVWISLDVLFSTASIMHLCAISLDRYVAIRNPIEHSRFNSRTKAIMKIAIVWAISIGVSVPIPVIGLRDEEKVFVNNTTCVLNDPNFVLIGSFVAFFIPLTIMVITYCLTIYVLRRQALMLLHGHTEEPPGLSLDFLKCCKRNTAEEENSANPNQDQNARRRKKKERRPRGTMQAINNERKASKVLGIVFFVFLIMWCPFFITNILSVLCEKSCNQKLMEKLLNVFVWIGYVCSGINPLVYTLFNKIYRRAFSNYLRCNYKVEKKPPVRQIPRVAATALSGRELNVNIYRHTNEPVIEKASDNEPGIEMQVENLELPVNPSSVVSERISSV
Experimental: as §1

5-HT2B = 5-HT2B (Homo sapiens, UniProt P41595); test: BRET Gq dissociation, 5-HT2B; type: cell-based
Experimental: After at least 18-24 hours, transfected cells were plated in poly-lysine coated 96-well white clear bottom cell culture plates in DMEM containing 1% dialyzed FBS at a density of 25-40,000 cells in 200 μL per well and incubated overnight. After approximately 20-24 hours, media was decanted and cells were washed with 60 μL of drug buffer (1×HBSS, 20 mM HEPES, pH 7.4), followed by 60 μL of drug buffer and pre-incubated in a humidified atmosphere at 37° C. before receiving drug stimulation. Drug stimulation was induced by adding 30 μL of a solution of drug (3X) diluted in McCorvy buffer (1×HBSS, 20 mM HEPES, pH 7.4, supplemented with 0.3% BSA fatty acid free, 0.03% ascorbic acid) and plates were incubated at the indicated time and temperature. Fifteen minutes before reading, 10 μL of the RLuc substrate, either coelenterazine h for β-Arrestin recruitment BRET^1 or coelenterazine 400a for Gq dissociation BRET^2 (Prolume/Nanolight, 5 μM final concentration) was addedper well. Plates were read for luminescence at 485 nm and fluorescent eYFP emission at 530 nm for BRET^1 and at 400 nm and fluorescent GFP2 emission at 510 nm for BRET2 at 1 second per well using a Mithras LB940 (Berthold). The BRET ratios of fluorescence/luminescence were calculated per well and were plotted as a function of drug concentration using Graphpad Prism 8 (Graphpad Software Inc., San Diego, CA).

5-HT2A [2] = target: T1, 5-HT2A; test: cell-based; settings: for Emax: read-out: 5-HT2A Gq Emax (% 5-HT), BRET, mean ± SEM
Experimental: as §1

[3] = BRET, mean ± SEM, read-out: 5-HT2A β-arrestin recruitment pEC50 (converted)
[4] = read-out: 5-HT2C Gq Dissociation (BRET) pEC50 ± SEM (converted)
[5] = BRET, mean ± SEM, read-out: 5-HT2A Gq dissociation pEC50 (converted)

T1 sequence (P28223 whole entry): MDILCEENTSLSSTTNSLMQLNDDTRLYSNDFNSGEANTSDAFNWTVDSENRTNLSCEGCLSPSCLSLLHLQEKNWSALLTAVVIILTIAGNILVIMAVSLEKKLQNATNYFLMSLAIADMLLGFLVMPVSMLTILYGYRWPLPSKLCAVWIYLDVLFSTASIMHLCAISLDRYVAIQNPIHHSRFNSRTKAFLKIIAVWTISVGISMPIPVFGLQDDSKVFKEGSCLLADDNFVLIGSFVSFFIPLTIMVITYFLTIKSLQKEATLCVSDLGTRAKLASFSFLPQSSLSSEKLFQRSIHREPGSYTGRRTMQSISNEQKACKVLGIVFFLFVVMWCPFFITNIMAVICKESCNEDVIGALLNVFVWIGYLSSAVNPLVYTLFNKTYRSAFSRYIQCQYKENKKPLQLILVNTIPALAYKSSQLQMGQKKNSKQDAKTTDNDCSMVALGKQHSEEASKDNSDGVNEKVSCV
5-HT2B, sequence (P41595 whole entry): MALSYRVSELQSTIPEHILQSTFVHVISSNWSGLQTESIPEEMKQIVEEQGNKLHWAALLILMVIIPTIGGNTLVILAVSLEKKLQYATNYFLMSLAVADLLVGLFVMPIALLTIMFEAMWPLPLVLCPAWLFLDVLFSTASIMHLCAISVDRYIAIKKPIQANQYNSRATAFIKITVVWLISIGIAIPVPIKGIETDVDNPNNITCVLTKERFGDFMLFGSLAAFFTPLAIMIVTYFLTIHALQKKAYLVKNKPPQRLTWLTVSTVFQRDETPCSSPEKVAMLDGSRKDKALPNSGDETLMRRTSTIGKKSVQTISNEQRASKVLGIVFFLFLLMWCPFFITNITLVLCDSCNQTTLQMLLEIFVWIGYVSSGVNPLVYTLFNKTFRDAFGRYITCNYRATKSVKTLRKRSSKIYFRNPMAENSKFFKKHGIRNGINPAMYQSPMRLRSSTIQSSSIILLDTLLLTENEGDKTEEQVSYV

SMILES	EC50 (5-HT2A [1]; [3])	Emax (5-HT2C)	EC50 (5-HT2C; [4])	5-HT2B Gq Dissociation (BRET) EMAX ± SEM (%5-HT) (5-HT2B)	5-HT2B Gq Dissociation (BRET) pEC50 ± SEM (5-HT2B)	EC50 (5-HT2A [2]; [5])	Emax (5-HT2A [2])	Emax (5-HT2A [1])	EC50 (5-HT2A [2])	EC50 (5-HT2A [1])	EC50 (5-HT2C)
COc1cc(Br)c(Br)c(OC)c1CCNCc1cccc2ccccc12 [(35)]	1.95 nM	69.8 ± 1.3%	5.5 nM	No activity	No activity	3.89 nM	30.2 ± 1.5%	–	–	–	–
COc1cc(Br)c(Br)c(OC)c1CCNCc1cccc(C)c1O [(45)]	1.32 nM	81 ± 2.1%	1.51 nM	No activity	No activity	2.24 nM	70.5 ± 2%	77.5 ± 6%	–	–	–
COc1cc(OC)c(OC)cc1CCNCc1cccc2cnccc12 [(56)]	17.4 nM	80.9 ± 3.4%	126 nM	No activity	No activity	26.3 nM	64.1 ± 1.5%	75.8 ± 8.3%	–	–	–
COc1cc(CCNCc2cccc(C)c2O)ccc1Cl [(47)]	6.92 nM	98 ± 3.1%	19.5 nM	No activity	No activity	30.9 nM	66.9 ± 1.8%	80.5 ± 3.2%	–	–	–
Brc1c2c(c(CCNCc3cccc4ccccc34)c3c1OCC3)OCC2 [(29)]	1.02 nM	78.1 ± 2.1%	4.17 nM	No activity	No activity	8.71 nM	31.8 ± 1.4%	62.5 ± 2.3%	–	–	–
COc1cc(OC)c(OC)cc1CCNCc1ccccc1Oc1ccccc1 [(60)]	–	113 ± 11.6%	1700 nM	No activity	No activity	–	63.3 ± 3.5%	117 ± 14.6%	–	–	–
COc1cc(OC)c(OC)cc1CCNCc1cccc(F)c1F [(65)]	170 nM	83.3 ± 6.3%	200 nM	No activity	No activity	64.6 nM	76.5 ± 2.3%	101 ± 2.7%	–	–	–
COc1cc(CCNCc2cccc3ccccc23)cc(OC)c1Br [(31), 2-(4-bromo-3,5-dimethoxyphenyl)-N-[(naphthalen-1-yl)-methyl]ethan-1-amine]	35.5 nM	80.2 ± 2.2%	41.7 nM	No activity	No activity	–	20.3 ± 1.9%	50.8 ± 3.4%	170 nM	–	–
COc1cc(Br)c(CCNCc2cccc(C)c2O)cc1OC [(43), 2-(((2-bromo-4,5-dimethoxyphenethyl)-amino)-methyl)-6-methylphenol]	–	75.4 ± 2%	–	No activity	No activity	–	65.4 ± 1.4%	91.7 ± 3.4%	6.46 nM	6.31 nM	20.9 nM
COc1cc(OC)c(OC)cc1CCNCc1cccc2ncccc12 [(57)]	–	77.6 ± 3.2%	200 nM	No activity	No activity	–	34.2 ± 4%	92 ± 8.9%	–	–	–
COc1cc(CCNCc2cccc3ccccc23)ccc1Cl [(40)]	–	87.8 ± 2%	97.7 nM	No activity	No activity	–	29.9 ± 1.8%	80.8 ± 3.8%	–	–	–
COc1cc(OC)c(OC)cc1CCNCc1cccc2c1CCC2 [(51)]	3.31 nM	52.5 ± 5.2%	93.3 nM	No activity	No activity	1.7 nM	41.2 ± 1.9%	72.9 ± 4.2%	–	–	–
COc1cc(Cl)ccc1CC(C)NCc1cccc(C)c1O (stereo not shown) [(46)]	1.12 nM	95.5 ± 3.2%	11.5 nM	No activity	No activity	4.79 nM	67.8 ± 1.6%	72.9 ± 5.6%	–	–	–

— patent US20240254087A1, “SELECTIVE, PARTIAL, AND ARRESTIN-BIASED 5-HT2A AGONISTS WITH UTILITY IN VARIOUS DISORDERS” (Saint Joseph's University, priority 2021, published 2024)
